Reference: patent US8841288B2, “Quinolin-4 (1H)-one derivatives as inhibitors of phosphatidylinositol 3-kinases” (Universtà Degli Studi di Torino, priority 2010, dated 2014)

Biological target: p110α (Homo sapiens (Human), UniProt P42336)
Assay: PI3K lipid kinase activity on lipid micelles (ADP-Glo), p110α
Assay type: biochemical
Conditions: 10 μM ATP
Method: a) Some compounds of formula (I) described herein were assayed in vitro for their ability to inhibit the lipid kinase activity of PI3Ks, by using a non-radioactive method.
In details, His and GST-tagged recombinant proteins (purchased from JenaBioscience—Germany; PI3Kα #PR-335, PI3Kβ #PR-344, PI3Kγ #PR-343, PI3Kδ #PR-345) for each isoform PI3Kα, β, γ and δ, were incubated with 10 μM of ATP, with lipid micells containg the appropriate substrate phosphatidylinositol and the phosphatidilserine, and different concentrations of the formula (I) compounds.
After 30 minutes of incubation at room temperature, the amount of ADP produced from ATP following the activation of kinase was measured with a luminescent kinase assay, ADP-Glo™ Kinase Assay (purchased from Promega—USA #V9101).
The luminescent signal positively correlates with the formed ADP and, therefore, with the kinase activity.
Inhibition of PI3K lipid kinase activity is achieved when the amount of ADP—that is correlated with the PI3K activity—in the presence of the assayed compound of formula (I) is lower than the amount detected in the control samples.
For each assayed formula (I) compound, a specific IC50 for each class I PI3K isoform was measured.
The IC50 of a formula (I) compound is the concentration of the compound able to inhibit by 50% the kinase activity of each PI3K isoform.
The IC50 was determined by constructing a dose-response curve and examining the inhibitory effect of different concentrations of the assayed formula (I) compounds on the ADP production.
To evaluate the ability of each compound of formula (I) to inhibit the lipid kinase activity of each PI3K isoform, PI3Kα, β, γ and δ recombinant proteins (30 ng for each assay) were incubated for about 30 minutes with different concentrations of compounds.
Lipid micelles were formed by sonicating a mixture of 1 mg of phosphatidylinositol and 1 mg of phosphatidylserine. Lipid micelles were use as substrate for the PI3K lipid kinase activity. The reaction was started by adding 10 μM of ATP and 10 μM of micelles to each reaction.
After 30 minutes of incubation at room temperature, the reaction was stopped and the amount of ADP produced was measured by using the ADP-glo assay (see above).

p110α, sequence (P42336 whole entry): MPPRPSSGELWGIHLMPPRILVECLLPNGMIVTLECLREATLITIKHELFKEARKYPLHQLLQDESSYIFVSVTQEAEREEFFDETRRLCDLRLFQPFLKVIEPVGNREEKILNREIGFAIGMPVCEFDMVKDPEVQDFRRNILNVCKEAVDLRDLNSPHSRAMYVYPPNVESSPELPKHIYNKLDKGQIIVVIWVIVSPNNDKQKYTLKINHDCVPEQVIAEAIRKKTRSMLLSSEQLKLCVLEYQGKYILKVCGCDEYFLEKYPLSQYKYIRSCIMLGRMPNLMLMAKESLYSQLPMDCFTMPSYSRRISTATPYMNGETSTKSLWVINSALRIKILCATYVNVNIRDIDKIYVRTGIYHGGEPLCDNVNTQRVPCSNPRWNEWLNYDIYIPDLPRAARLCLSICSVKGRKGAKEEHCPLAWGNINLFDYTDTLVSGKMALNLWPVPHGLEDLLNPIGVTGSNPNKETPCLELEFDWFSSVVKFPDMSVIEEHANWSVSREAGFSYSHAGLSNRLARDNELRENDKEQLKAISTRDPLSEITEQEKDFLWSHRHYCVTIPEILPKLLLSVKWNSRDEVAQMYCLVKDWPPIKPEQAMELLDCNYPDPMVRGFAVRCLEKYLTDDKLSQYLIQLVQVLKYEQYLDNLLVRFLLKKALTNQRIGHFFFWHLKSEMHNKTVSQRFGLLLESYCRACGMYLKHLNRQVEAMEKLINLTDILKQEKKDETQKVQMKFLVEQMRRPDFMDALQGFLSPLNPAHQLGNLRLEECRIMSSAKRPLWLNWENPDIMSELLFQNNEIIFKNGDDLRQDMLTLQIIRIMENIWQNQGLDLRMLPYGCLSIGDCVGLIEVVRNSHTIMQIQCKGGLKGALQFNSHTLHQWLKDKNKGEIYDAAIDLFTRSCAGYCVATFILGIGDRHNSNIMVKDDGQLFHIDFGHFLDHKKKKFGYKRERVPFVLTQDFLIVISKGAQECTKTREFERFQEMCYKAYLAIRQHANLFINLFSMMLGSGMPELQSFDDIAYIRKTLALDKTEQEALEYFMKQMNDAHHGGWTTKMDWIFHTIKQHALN
p110α, sequence (P27986 whole entry partner): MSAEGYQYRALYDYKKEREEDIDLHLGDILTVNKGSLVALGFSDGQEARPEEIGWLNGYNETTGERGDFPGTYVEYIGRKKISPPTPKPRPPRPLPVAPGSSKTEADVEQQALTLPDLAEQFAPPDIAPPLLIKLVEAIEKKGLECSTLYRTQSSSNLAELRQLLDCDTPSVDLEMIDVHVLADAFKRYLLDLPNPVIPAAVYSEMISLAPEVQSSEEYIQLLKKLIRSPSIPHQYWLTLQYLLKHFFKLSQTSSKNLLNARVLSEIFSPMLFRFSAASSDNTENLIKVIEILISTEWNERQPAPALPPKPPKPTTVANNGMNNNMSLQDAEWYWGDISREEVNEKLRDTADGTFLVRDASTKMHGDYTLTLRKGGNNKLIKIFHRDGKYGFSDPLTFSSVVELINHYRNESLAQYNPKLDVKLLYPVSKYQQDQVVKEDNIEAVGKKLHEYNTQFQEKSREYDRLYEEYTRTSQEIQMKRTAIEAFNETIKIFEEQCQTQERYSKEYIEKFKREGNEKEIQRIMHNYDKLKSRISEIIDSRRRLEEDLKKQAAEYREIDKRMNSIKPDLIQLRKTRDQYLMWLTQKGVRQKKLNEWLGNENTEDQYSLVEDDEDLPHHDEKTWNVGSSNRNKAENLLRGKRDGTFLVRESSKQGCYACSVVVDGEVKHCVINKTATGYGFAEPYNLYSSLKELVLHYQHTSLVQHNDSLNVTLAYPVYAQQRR

| Structure (SMILES) | IC50 [µM] |
| --- | --- |
| Cc1cc(F)ccc1Oc1cccc2c(=O)cc(N3CCOCC3)[nH]c12 [TGX155, reference compound] | > 20 |
| N#CCc1ccc(-n2cc(-c3cccc4c(=O)cc(N5CCOCC5)[nH]c34)nn2)cc1 [CL12, 2-(4-(4-(2-morpholino-4-oxo-1,4-dihydroquinolin-8-yl)-1H-1,2,3-triazol-1-yl)phenyl) acetonitrile] | 0.1 |
| O=C(NCc1ccccc1)c1cccc(Cn2cc(-c3cccc4c(=O)cc(N5CCOCC5)[nH]c34)nn2)c1 [CL129a, N-benzyl-3-((4-(2-morpholino-4-oxo-1,4-dihydroquinolin-8-yl)-1H-1,2,3-triazol-1-yl)methyl) benzamide] | 0.14 |
| O=C(O)CCCn1cc(-c2cccc3c(=O)cc(N4CCOCC4)[nH]c23)nn1 [CL55a, 4-(4-(2-morpholino-4-oxo-1,4-dihydroquinolin-8-yl)-1H-1,2,3-triazol-1-yl)butanoic acid] | 0.1 |
| O=c1cc(N2CCOCC2)[nH]c2c(-c3cn(-c4ccccc4O)nn3)cccc12 [TP714, 8-(1-(2-hydroxyphenyl)-1H-1,2,3-triazol-4-yl)-2-morpholinoquinolin-4(1H)-one] | 0.26 |
| O=c1cc(N2CCOCC2)[nH]c2c(-c3cn(Cc4ccccc4)nn3)cccc12 [CL5, 8-(1-benzyl-1H-1,2,3-triazol-4-yl)-2-morpholinoquinolin-4(1H)-one] | 0.26 |
| O=C(O)c1cccc(-n2cc(-c3cccc4c(=O)cc(N5CCOCC5)[nH]c34)nn2)c1 [CL55b, 3-(4-(2-morpholino-4-oxo-1,4-dihydroquinolin-8-yl)-1H-1,2,3-triazol-1-yl)benzoic acid] | 0.1 |
| O=C(O)c1cccc(Cn2cc(-c3cccc4c(=O)cc(N5CCOCC5)[nH]c34)nn2)c1 [CL27e, 3-((4-(2-morpholino-4-oxo-1,4-dihydroquinolin-8-yl)-1H-1,2,3-triazol-1-yl)methyl)benzoic acid] | 0.02 |
| O=C(O)c1ccc(-n2cc(-c3cccc4c(=O)cc(N5CCOCC5)[nH]c34)nn2)cc1 [CL29a, 4-(4-(2-morpholino-4-oxo-1,4-dihydroquinolin-8-yl)-1H-1,2,3-triazol-1-yl)benzoic acid] | 0.32 |
| O=c1cc(N2CCOCC2)[nH]c2c(-c3cn(-c4ccccc4)nn3)cccc12 [CL1, 2-morpholino-8-(1-phenyl-1h-1,2,3-triazol-4-yl)quinolin-4(1H)-one] | 0.73 |
| O=C(O)CCCCn1cc(-c2cccc3c(=O)cc(N4CCOCC4)[nH]c23)nn1 [CL64a, 5-(4-(2-morpholino-4-oxo-1,4-dihydroquinolin-8-yl)-1H-1,2,3-triazol-1-yl)pentanoic acid] | 0.1 |
